“And” between values parts separate entries of the source, which are not always exact repeats. Equal values may be shown once.

The subject of one data set is HL-60. Nature of the data set: TUNEL / propidium iodide flow cytometry, HL-60. The class given is cell-based, human. The note with it: HL-60; taurolidine 100 μg/ml or anisomycin 1 μg/ml for 4 h, assayed at 6 hours; mean ± SD. How it is done:
(§1) In the second method, DNA fragmentation was detected via TUNEL assay according to the manufacturer's instructions. With this methodology, 2×10^6 cells were fixed with 2% paraformaldehyde, permeabilized with 0.1% Triton X-100/0.1% citrate, incubated at 37° C. with terminal deoxynucleotidyl transferase and FITC-dUTP, rinsed and analyzed by flow cytometry. Enhanced FITC signal indicates apoptosis-specific DNA fragmentation. Gavriali, et al, "Identification of programmed cell death in situ via specific labeling of nuclear DNA fragmentation," J Cell Biol 119:493 (1992). Parallel aliquots of unfixed cells were treated with PI and FITC-conjugated anti-CD14 and analyzed by flow cytometry, in order to identify cells with permeable cell membranes (since PI binds to DNA but is excluded from cells with intact plasma membranes) and also to determine the cell-specificity of the apoptotic signal.
(§2) Consequently, TUNEL analysis was performed on PBMC at 3, 6, or 24 hours after treatment with 25 to 100 μg/ml taurolidine. Aliquots of harvested cells were also labeled with FITC-conjugated anti-CD14 antibodies and PI, which allowed identification of monocytes (CD14-positive cells) and cells with damaged cell membranes (PI-positive cells). […] Thus, nearly 75% of the monocytes were TUNEL-positive following treatment with 100 μg/ml taurolidine for six hours. Confirmation that the TUNEL-positive cells were monocytes was obtained by staining with FITC-conjugated anti-CD14.
(§3) In another study, TUNEL assays were performed on all cell lines 6 hours after cells were initially exposed to taurolidine (cells were treated for 4 hours, rinsed, and then incubated for 2 more hours before TUNEL assay was performed).
(§4) . Taurolidine and anisomycin induced apoptosis in MM6, HL-60, and Jurkat cells (Table VIII). MM6 and HL-60 cells were similarly effected, with >80% TUNEL-positive cells after 6 hours. Jurkat cells were less sensitive, with approximately 50% of cells induced to undergo apoptosis after taurolidine treatment. After 6 hours, 73% of anisomycin-treated REH cells were apoptotic, with less than 20% of taurolidine-treated REH cells being TUNEL-positive. However, assay of cells 24 hours after
(§5) ^a Analysis by flow cytometry after staining cells with propidium
(§6) iodide and processing for TUNEL.
(§7) Data are percent of total cell-size events, and are expressed as mean ±
(§8) Cells were treated for 4 hours with taurolidine (100 μg/ml) or
(§9) anisomycin (1 μg/ml), and then assayed at 6 hours.

The subject of another data set is ECV304. The data set can be described thus: TUNEL / propidium iodide flow cytometry, ECV304. The class given is cell-based, human. The note with it: ECV304; taurolidine 100 μg/ml or anisomycin 1 μg/ml for 4 h, assayed at 6 hours; mean ± SD. How it is done: as §1, §3
(§10) . Taurolidine and anisomycin induced apoptosis in MM6, HL-60, and Jurkat cells (Table VIII). MM6 and HL-60 cells were similarly effected, with >80% TUNEL-positive cells after 6 hours. […]
(§11) Data are percent of total cell-size events, and are expressed as mean ± […]

A further data set deals with GM5387. The data set can be described thus: TUNEL / propidium iodide flow cytometry, GM5387. The class given is cell-based, human. The note with it: GM5387; taurolidine 100 μg/ml or anisomycin 1 μg/ml for 4 h, assayed at 6 hours; mean ± SD. How it is done: as §1, §3, §10, §11
In general terms: Flow cytometry measures light scatter and fluorescence of single cells or particles in a stream.

The subject of a further data set is REH. Nature of the data set: TUNEL / propidium iodide flow cytometry, REH. The class given is cell-based, human. The note with it: taurolidine 100 μg/ml or anisomycin 1 μg/ml for 4 h, mean ± SD. How it is done:
as §1, §3, §4, §5, §6, §7, §8, §9
(§12) Data are percent of total cell-sized events, and are expressed as mean ±
(§13) anisomycin (1 μg/ml), and then assayed at 24 hours.

The subject of another data set is K562. The data set can be described thus: TUNEL / propidium iodide flow cytometry, K562. The note with it: taurolidine 100 μg/ml or anisomycin 1 μg/ml for 4 h, mean ± SD. The class given is cell-based, human. On the procedure: as §1, §3, §4, §5, §6, §7, §8, §9, §12, §13
A further data set has as its system MM6. Nature of the data set: TUNEL / propidium iodide flow cytometry, MM6. The class given is cell-based, human. The note with it: MM6; taurolidine 100 μg/ml or anisomycin 1 μg/ml for 4 h, assayed at 6 hours; mean ± SD. On the procedure:
as §1, §2, §3, §4, §5, §6, §7, §8, §9

The next data set concerns Monocytes. Nature of the data set: tissue or blood. The class given is cell-based, human. On the procedure:
(§14) FIGS. 15A, 15B, and 15C depict TUNEL analysis of PBMC treated with taurolidine in whole blood, for control cells, taurolidine-treated cells, and anisomycin-treated cells, respectively . Cells were incubated with 500 μg/ml taurolidine for 4 hours, resuspended in fresh medium, incubated for two hours further and processed for TUNEL analysis. Parallel samples were stained with FITC-conjugated anti-CD14 and PI as described herein. Ten thousand events were recorded per sample. TUNEL signal (x -axis) is a measure of DNA fragmentation, while FSC (y-axis) is related to cell size. TUNEL-negative lymphocytes are bounded by rectangle R 1, while TUNEL-negative monocytes (CD 14 positive cells) are bounded by rectangle R2. R3 bounds the TUNEL-positive population of cells. There were minimal numbers of PI-positive cells in 6 hour samples (see Table VI).
as §1
(§15) Taurolidine at 100 μg/ml induced apoptosis of approximately 75% of purified peripheral blood monocytes when these cells were incubated in culture medium. However, in order to more closely mimic the milieu of leukocytes in vivo, induction of apoptosis in PBMC by taurolidine was studied in whole blood (anticoagulated with heparin). As before, apoptosis was quantitated by measuring the loss of monocytes from a TUTNEL-negative (no DNA fragmentation), CD 14 positive population of cells which was concomitant with the appearance of a TUNEL-positive population of cells. Treatment of PBMC in whole blood resulted
(§16) in a shift of the taurolidine dose-response curve. […] As a positive control for induction of apoptosis, some cells were treated with anisomycin, a protein synthesis inhibitor known to induce apoptosis in monocytes.
(§17) ^a Analysis by flow cytometry after staining cells with PI and
(§18) processing for TUNEL. Data are mean ± SD of 2 experiments.
(§19) ^b Percent of cells present in the TUNEL-negative region in control

The test system of another data set is Lymphocytes. The data set can be described thus: tissue or blood. The class given is cell-based, human. The note with it: whole blood. How it is done:
as §14, §1, §15, §16, §17, §18, §19

The test system of the next data set is Jurkat. The data set can be described thus: TUNEL / propidium iodide flow cytometry, Jurkat. The class given is cell-based, human. The note with it: taurolidine 100 μg/ml or anisomycin 1 μg/ml for 4 h, assayed at 6 hours, mean ± SD. On the procedure: as §1, §3, §10, §11
The subject of the next data set is tissue factor (TF). The data set can be described thus: LPS-induced tissue factor (TF) expression in MM6 cells, ELISA. The class given is cell-based, human. The note with it: MM6, taurine up to 0.5 mg/ml. How it is done:
FIG. 2A represents MM6 cells; FIG. 2B represents PBMC. The cells were induced with LPS (hatched bars: 100 ng/ml LPS in RPMI supplemented with 10% BCS (RPMI+10% BCS); solid bars: 10 ng/ml in AIM-V+0.01% BCS) in the presence of varying concentrations of taurolidine,or with a dilution of the vehicle equivalent to that given to cells receiving 100 μg/ml taurolidine. After four hours, cells were collected and lysates were prepared for TF ELISA. Data are expressed as percent of TF antigen measured in cells treated with LPS alone (no taurolidine or vehicle). Experiments were performed with duplicate samples and were repeated at least three times. Values shown are mean±SEM of all experiments.
All cells were cultured in a 5% CO2 atmosphere at 37° C. MM6 cells were grown in RPMI supplemented with 10% BCS, 2 mM L-glutamine, and 50 μg/ml gentamicin (RPMI+10% BCS). In some experiments, MM6 cells were rinsed once with HBSS without Ca^++ or Mg^++ and once with AIM-V before finally being resuspended in AIM-V supplemented with 0.01% BCS (AIM-V+0.01% BCS). […] AIM-V was supplemented with a low amount of BCS (0.01%) in order to provide a source of LPS-binding protein, which enhances the response of monocytic cells to LPS. […] HL-60, REH, and Jurkat were cultured in RPMI supplemented with 10% heat inactivated fetal bovine serum (FBS), 2 mM L-glutamine, and 50 μg/ml gentamicin. ECV304 were cultured in M199 supplemented with 10% FBS, mM L-glutamine, and 50 μg/ml gentamicin. GM5387 was cultured in MEM supplemented with 20% FBS, 2 mM L-glutamine, and 50 μg/ml gentamicin.
For induction of TF or TNFα expression, MM6 cells or PBMC were cultured either in RPMI supplemented with 10% BCS or in AIM-V+0.01% BCS, and stimulated by adding LPS to final concentrations of 10 to 100 ng/ml. […] Except as noted, taurolidine and LPS were added to the cell cultures simultaneously. For TF determination, cells and culture media together were treated by adding Triton X-100 (1% final) and EDTA (7 mmol/L final), and the resulting lysates assayed by ELISA. […] For TNFα determination, cells were removed by centrifugation for 5 min at 250×g, and the supernatants were assayed by ELISA.
In general terms: An ELISA detects its analyte on a solid surface through an enzyme-linked reagent.

The next data set has as its system TNFα. Nature of the data set: LPS-induced TNFα expression/secretion by MM6 cells, ELISA. The class given is cell-based, human. The note with it: MM6, taurine 44 μg/ml. How it is done: FIG. 3A and FIG. 3B are graphs depicting taurolidine inhibition of LPS-induced alpha […] (TNFα) expression by monocytic cells as determined by assay procedures. FIG. 3A represents MM6 cells; FIG. 3B represents PBMC. The cells were induced with LPS (hatched bars: 100 ng/ml LPS in RPMI+10% BCS; solid bars: 10 ng/ml in AIM-V+0.01% BCS) in the presence of varying concentrations of taurolidine. After four hours, cell supernatants were collected for TNFα ELISA. Data are expressed as percent of TNFα levels measured in cell cultures treated with LPS alone (no taurolidine or vehicle). Experiments were performed with duplicate samples and were repeated at least three times. Values shown in FIG. 3A are from a representative experiment. Values shown in FIG. 3B are mean±SEM of three experiments.
All cells were cultured in a 5% CO2 atmosphere at 37° C. MM6 cells were grown in RPMI supplemented with 10% BCS, 2 mM L-glutamine, and 50 μg/ml gentamicin (RPMI+10% BCS). In some experiments, MM6 cells were rinsed once with HBSS without Ca^++ or Mg^++ and once with AIM-V before finally being resuspended in AIM-V supplemented with 0.01% BCS (AIM-V+0.01% BCS). […] AIM-V was supplemented with a low amount of BCS (0.01%) in order to provide a source of LPS-binding protein, which enhances the response of monocytic cells to LPS. Ulevitch, R. J. and Tobias, P. S., "Recognition of endotoxin by cells leading to transmembrne signaling," Curr Opin Immunol 6:125 (1994). HL-60, REH, and Jurkat were cultured in RPMI supplemented with 10% heat inactivated fetal bovine serum (FBS), 2 mM L-glutamine, and 50 μg/ml gentamicin. ECV304 were cultured in M199 supplemented with 10% FBS, mM L-glutamine, and 50 μg/ml gentamicin. GM5387 was cultured in MEM supplemented with 20% FBS, 2 mM L-glutamine, and 50 μg/ml gentamicin.
For induction of TF or TNFα expression, MM6 cells or PBMC were cultured either in RPMI supplemented with 10% BCS or in AIM-V+0.01% BCS, and stimulated by adding LPS to final concentrations of 10 to 100 ng/ml. […]

Another data set deals with human blood monocytes. The note with it: cited from earlier work.

Take `COc1ccc(C[C@H]2NC[C@H](O)[C@H]2OC(C)=O)cc1` [anisomycin]: the “% TUNEL-positive” value in the data set on HL-60 was > 80% and 96.1 ± 6.8%; in the data set with REH (assayed at 6 hours), 73% and 72.9 ± 7.4%; in the data set on REH (assayed at 24 hours) it was 53.0 ± 2.6%; in the data set on K562 (assayed at 24 hours), 2.2 ± 6.2%; in the data set on K562 (assayed at 24 hours, listed as Anisomycin), “less than 10%”; in the data set on MM6, > 80% and 92.0 ± 2.3%. The “% TUNEL-positive” value in the data set on Jurkat was found to be 69.6 ± 19.8%. Moreover, the “% propidium iodide positive” value in the data set on HL-60 stood at 28.3 ± 15.3%; in the data set with ECV304, 2.2 ± 3.1%; in the data set on GM5387, 5.4 ± 3.2%; in the data set on REH (assayed at 6 hours) it was 18.4 ± 0.5%; in the data set on K562 (assayed at 6 hours) it was 4.8 ± 3.1%; with MM6 it was 19.1 ± 5.4%. In addition, in the data set on Jurkat, the “% propidium iodide positive” value worked out at 5.1 ± 3.4%. Further, the results for the “% propidium iodide” value with REH (assayed at 24 hours) and in the data set on K562 (assayed at 24 hours) were 51.6 ± 17.0% and 7.1 ± 2.3%, respectively. Besides, the “TUNEL-negative monocytes after anisomycin” value in the data set with Monocytes (PBMC in whole blood) was “loss of TUNEL-negative monocytes”. Also, the “TUNEL-positive cells after anisomycin” value in the data set with Monocytes (whole blood, 6 hour incubation, versus taurolidine) was “fewer TUNEL-positive cells”. The “induction of apoptosis in lymphocytes” value in the data set on Lymphocytes was “no evidence for a significant effect”.

`NCCS(=O)(=O)O` [taurine]: in the data set with tissue factor (TF), the “effect on TF expression” value is given as “no effect on TF expression”. In addition, the “effect on TNFα expression” value in the data set with TNFα is “no effect on TNFα expression”.

B1: IL-4: anti-inflammatory cytokine IL-4 (protein, UniProt P05112 25-153, looked up)
Interleukin-4: HKCDITLQEIIKTLNSLTEQKTLCTELTVTDIFAASKNTTEKETFCRAATVLRQFYSHHEKDTRCLGATAQQFHRHKQLIRFLKRLDRNLWGLAGLNSCPVKEANQSTLENFLERLKTIMREKYSKCSS
In the case of B1, the “effect on apoptosis in LPS-stimulated monocytes” value with human blood monocytes is “can enhance apoptosis”.

The record behind these values is patent US6303596A, “Use of taurolidine for treatment of leukemias” (priority 2000, dated 2001).
